{"source": "paper PMC8029449", "about": "(ACS chemical neuroscience, 2021)", "key": {"[1]": {"system": "VEGFR2 phosphorylation at Y1175 in CAD cells", "assay": "In cell western for inhibition of VEGFR2 activation by VEGF-A165", "format": "cell-based, mouse", "conditions": "compounds at 12.5 μM, 1 nM VEGF-A165, 1 hour"}, "VSV-eGFP-SARS-CoV-2": {"system": "VSV-eGFP-SARS-CoV-2", "format": "cell-based, vesicular stomatitis virus", "conditions": "25 µM"}}}
{"compound": "NC(N)=NCCC[C@H](NC(=O)c1sccc1NS(=O)(=O)c1cccc2nsnc12)C(=O)O", "note": "[Compound A]", "values": [{"measurement": "block of VEGF-A stimulated increased phosphorylation of VEGFR2 (pY1175)", "setting": "[1]", "result": "blocked"}, {"measurement": "inhibition of VSV-eGFP-SARS-CoV-2 entry into cells", "setting": "VSV-eGFP-SARS-CoV-2", "result": "ineffective"}]}
